# From US11643478B2, “Low-molecular-weight holothurian glycosaminoglycan and use thereof” (Suzhou Yi-hua Biomedical Technology co., Ltd, priority 2019, dated 2023)
# Assays:
# [1] = tested on: rat's learning and memory abilities of scopolamine model; experiment: Morris water maze test, rat dysmnesia model induced by scopolamine; format: in vivo, SD rats; details: intragastric for 2 weeks, LHG 30 mg/Kg, Donepezil 1 mg/Kg; scopolamine i.p.
# Description: Grouping and dose: blank control group, scopolamine model group (SCOP), positive control group:(Donepezil, 1 mg/Kg), LHG drug group (30 mg/Kg). Administration: intragastric administration. […] Morris training on Day 9 (2 times per day). Morris water maze test and platform jumping test on Day 14. Modeling method and test of learning and memory: on the day of the test, rats of scopolamine model group, positive control group and LHG drug group were injected with scopolamine hydrobromide through peritoneal cavity (firstly injection dose is 2 mg/Kg for 2 days, then injection dose is 2 mg/Kg on Day 3) at 30 minutes after intragastric administration, while rats of blank control group were injected with equal volume of normal saline through peritoneal cavity. Morris water maze test was conducted at 20 minutes after injection. The route, time and speed of the rats in the 90s were recorded automatically with computer by the camera tracking on the swimming performance of the rats, then the escaping-incubation time of seeking the platform and swimming distance were calculated.
# [2] = tested on: rat's learning and memory abilities of scopolamine model; experiment: Platform jumping test, rat dysmnesia model induced by scopolamine; format: in vivo, SD rats; details: intragastric for 2 weeks, LHG 30 mg/Kg, Donepezil 1 mg/Kg, scopolamine 5 mg/Kg i.p.
# Description: Grouping and dose: blank control group, scopolamine model group (SCOP), positive control group:(Donepezil, 1 mg/Kg), LHG drug group (30 mg/Kg). Administration: intragastric administration. […] Morris training on Day 9 (2 times per day). Morris water maze test and platform jumping test on Day 14. Platform jumping test: Learning and training on the first day, the repeated tests were conducted on the second day. Rats of scopolamine model group, positive control group and LHG drug group were injected with scopolamine hydrobromide through peritoneal cavity (5 mg/Kg) at 20 minutes before the test, while rats of blank control group were injected with equal volume of normal saline through peritoneal cavity. The incubation time of jumping off the platform for the first time (SDL) and the incubation time of avoiding electric shock (EL) were recorded.
# [3] = tested on: xylene inducing murine auricle swelling; experiment: Xylene inducing murine auricle swelling (anti-inflammation effect); format: in vivo; details: mice, subcutaneous injection 0.01 mL/1 g for 5 days (LHG 100 mg/mL, dexamethasone 50 mg/mL), 1 h after xylene
# Description: Drug preparation: LHG was added in ionized water to obtain 100 mg/mL LHG solution. Positive contrast: dexamethasone was added in ionized water to obtain 50 mg/mL dexamethasone solution. Blank contrast: ionized water.
# Administration: sub cutaneous injection.
# Experimental process: healthy mice are randomly divided into three groups (six in each group, half male and half female), name as LHG drug group, positive control group and blank control group. Three groups' mice were injected with 0.01 mL/1 g of LHG, dexamethasone and ionized water respectively. Drug was administered continuously for 5 days. 30 μL of xylenes was evenly smeared on both sides of the right ear of the mice to induce inflammation at 30 min after the last administration. The left ear was used as the reference. At 1 h after inducing inflammation, mice were executed by removing cervical vertebra. The ear pieces of the same part in the left and right ears were obtained with a hole punter, then the auricle swelling rate and inhibition rate of auricle swelling were calculated by weighing with an analytical balance.
smiles,measurement,setting,value
COc1cc2c(cc1OC)C(=O)C(CC1CCN(Cc3ccccc3)CC1)C2 (stereo not drawn) [Donepezil],Escaping-incubation time,[1],37.20 ± 12.72 s
same,Swimming distance (cm),[1],1652.25 ± 295.02 cm
same,Incubation time of avoiding electric shock,[2]; EL,115.28 ± 17.54 s
same,Incubation time of jumping off the platform for the first time,[2]; SDL,48.75 ± 9.84 s
C[C@@H]1C[C@H]2[C@@H]3CCC4=CC(=O)C=C[C@]4(C)[C@@]3(F)[C@@H](O)C[C@]2(C)[C@@]1(O)C(=O)CO [dexamethasone],Auricle swelling rate,[3],102.9% ± 11.3%
same,Inhibition rate of auricle swelling,[3],24.6%
